Source: PubChem BioAssay AID330 (DTP/NCI, 2004)
Values joined by “and” are separate entries in the source; they are usually repeats but may differ in a detail not shown here. Identical values can stand only once. Toxic doses and inconclusive results are not listed. How the source made its calls: active means survival T/C of 150% or more; inactive means T/C below 125% in these data. Peptide text beside a SMILES is read from it. * marks the point of attachment. Boc = CC(C)(C)OC(=O)*

Tested on: P388 leukemia ip, CD2F1 mice, survival T/C
Experiment: NCI In Vivo Anticancer Drug Screen. Data for tumor model P388 Leukemia (intraperitoneal) in CD2F1 (CDF1) mice
Conditions: endpoint: median survival time, higher = longer survival
Method in brief: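 Mice carrying the transplanted tumor received test compound or vehicle. Survival was recorded in each group, and the value is the treated-group measurement divided by that of the vehicle-treated control group.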

[1] = dose: 25.0 mg/kg/injection, schedule: Q01DX009 (ip), vehicle: saline
[2] = dose: 50.0 mg/kg/injection, schedule: Q01DX009 (ip), vehicle: saline
[3] = dose: 50.0 mg/kg/injection, schedule: Q01DX005 (ip), vehicle: Klucel (hydroxypropylcellulose) (HPC)
[4] = dose: 100.0 mg/kg/injection, schedule: Q01DX005 (ip), vehicle: Klucel (hydroxypropylcellulose) (HPC)
[5] = dose: 200.0 mg/kg/injection, schedule: Q01DX005 (ip), vehicle: Klucel (hydroxypropylcellulose) (HPC)
[6] = dose: 50.0 mg/kg/injection, schedule: Q01DX009 (ip), vehicle: Klucel (hydroxypropylcellulose) (HPC)
[7] = dose: 100.0 mg/kg/injection, schedule: Q01DX009 (ip), vehicle: Klucel (hydroxypropylcellulose) (HPC)
[8] = dose: 200.0 mg/kg/injection, schedule: Q01DX009 (ip), vehicle: Klucel (hydroxypropylcellulose) (HPC)
[9] = dose: 50.0 mg/kg/injection, schedule: Q01DX009 (ip), vehicle: saline with Tween-80
[10] = dose: 100.0 mg/kg/injection, schedule: Q01DX009 (ip), vehicle: saline with Tween-80

Measured: T/C

COC(=O)C(N)CSCSCc1ccccc1 (stereo unspecified)
inactive: dose: 3.13 mg/kg/injection, schedule: Q01DX009 (ip), vehicle: water 90 % of control | dose: 6.25 mg/kg/injection, schedule: Q01DX009 (ip), vehicle: water 90 % of control | dose: 12.5 mg/kg/injection, schedule: Q01DX009 (ip), vehicle: water 93 % of control | [1] 100 % of control | dose: 25.0 mg/kg/injection, schedule: Q01DX009 (ip), vehicle: water 90 % of control | [2] 98 % of control | dose: 50.0 mg/kg/injection, schedule: Q01DX009 (ip), vehicle: water 90 % of control | dose: 100.0 mg/kg/injection, schedule: Q01DX009 (ip), vehicle: saline 101 % of control

COc1c(OC)c([N+](=O)[O-])c2c(c1[N+](=O)[O-])COC2=O
inactive: [3] 104 % of control | [4] 103 % of control

COc1ccc(C(c2cc3c(cc2O)OCO3)N2CCCCC2)cc1OC (stereo unspecified)
inactive: dose: 60.0 mg/kg/injection, schedule: Q01DX005 (ip), vehicle: saline with Tween-80 107 % of control | dose: 120.0 mg/kg/injection, schedule: Q01DX005 (ip), vehicle: saline with Tween-80 110 % of control | dose: 240.0 mg/kg/injection, schedule: Q01DX005 (ip), vehicle: saline with Tween-80 120 % of control

CCOC(=O)c1cccc(N)c1C(=O)OCCN(CC)CC
inactive: [3] 93 % of control | [4] 87 % of control | [5] 99 % of control

CC(C)N(Cc1ccccc1)C(=O)Nc1ccc(Cc2ccc(NC(=O)N(Cc3ccccc3)C(C)C)cc2)cc1
inactive: [6] 90 % of control | [7] 96 % of control | [8] 93 % of control

CCCCCCCCCCCCCCCCCC(=O)OCCN(C=O)C[n+]1ccccc1
inactive: dose: 100.0 mg/kg/injection, schedule: Q04DX002 (ip), vehicle: saline 93 % of control | dose: 200.0 mg/kg/injection, schedule: Q04DX002 (ip), vehicle: saline 120 % of control

C#CCOC1CC(C)(O)Cc2cc3c(c(O)c21)C(=O)c1c(O)cc2c(c1C3=O)OC1OC2(C)C(O)C(N(C)C)C1O (stereo unspecified)
inactive: dose: 20.0 mg/kg/injection, schedule: Q01DX009 (ip), vehicle: other 89 % of control

O=P1(N2CCOCC2)OC(c2ccccc2)=CCN1c1ccc(Cl)cc1 (stereo unspecified)
inactive: [3] 104 % of control | [4] 100 % of control | [5] 95 % of control

CN(C)S(=O)(=O)c1ccccc1N=C=S
inactive: [9] 117 % of control | [10] 117 % of control

CSCCC(NC(=O)OC(C)(C)C)C(=O)NC(Cc1ccccc1)C(=O)O (stereo not drawn) (Boc-Met-Phe-OH; configuration not given here)
inactive: [3] 100 % of control | [4] 100 % of control | [5] 106 % of control

N#CC(Cc1ccccc1Cl)C(=O)O (stereo unspecified)
inactive: dose: 12.5 mg/kg/injection, schedule: Q01DX009 (none), vehicle: saline 99 % of control | dose: 25.0 mg/kg/injection, schedule: Q01DX009 (none), vehicle: saline 92 % of control | dose: 50.0 mg/kg/injection, schedule: Q01DX009 (none), vehicle: saline 90 % of control | dose: 100.0 mg/kg/injection, schedule: Q01DX009 (none), vehicle: saline 90 % of control

COC(=O)C1=C2\c3cc4c(cc3CCN2C(=O)c2ccc(OC)c(OC)c2/C(OC)=C\1)OCO4
inactive: dose: 50.0 mg/kg/injection, schedule: Q01DX005 (ip), vehicle: saline with Tween-80 93 % of control | dose: 100.0 mg/kg/injection, schedule: Q01DX005 (ip), vehicle: saline with Tween-80 90 % of control | dose: 200.0 mg/kg/injection, schedule: Q01DX005 (ip), vehicle: saline with Tween-80 90 % of control

CN(C)P(=O)(N(C)C)N1CCCCC1
inactive: [9] 97 % of control | [10] 114 % of control | dose: 200.0 mg/kg/injection, schedule: Q01DX009 (ip), vehicle: saline with Tween-80 100 % of control

CCN(CC)CCCNc1cccc2c(C)cc(OC)nc12
inactive: dose: 12.5 mg/kg/injection, schedule: Q01DX009 (ip), vehicle: saline 92 % of control | [1] 90 % of control | [2] 86 % of control

CCOC(=O)CN1C(=S)CSC1=S
inactive: [6] 106 % of control | [7] 98 % of control | [8] 107 % of control and 109 % of control
